Results reported in US10758633B2, “Nanoparticles for magnetic resonance imaging applications” (Massachusetts Institute of Technology, priority 2014, dated 2020).

Assay: MRI contrast enhancement in blood over time, 1.5 T clinical MRI, mice brain slice
Format: in vivo
Conditions: intravenous injection, T1-weighted
Procedure: The MRI contrast enhancement of Magnevist® (the most commonly used gadolinium-based contrast agents, GBCAs) and ES-SPIONs in blood were compared over time. According to approved animal protocols, mice were scanned in a 1.5 T clinical MRI machine. After intravenous injection of Magnevist or ES-SPIONs, the T1-weighted images of a single slice in mice brain were taken using clinical MRI sequences (˜3.5 mins time length), and then the half-life of contrast enhancements of both agents were compared side-by-side. […] Left and right images show corresponding side views of the image in the middle. It can be seen in FIG. 6 that a three dimensional profile highlighting the blood vessels in brain was generated.

half-life of contrast enhancement: ~2 min
Compound: CNC[C@H](O)[C@@H](O)[C@H](O)[C@H](O)CO.CNC[C@H](O)[C@@H](O)[C@H](O)[C@H](O)CO.O=C([O-])CN(CCN(CC(=O)[O-])CC(=O)O)CCN(CC(=O)[O-])CC(=O)O.[Gd+3] [Magnevist]
